1 compound from US10548829B2, “Oral care compositions and methods of use” (priority 2016, dated 2020) can be followed below.

The subject of the test is HaCaT cells. Put plainly: Scratch assay, cell migration/proliferation "wound healing". Particulars: 0.1 mM in 1% DMSO complete media. The format is cell-based, human. How it is done:
Cell Culture: Spontaneously immortalized human keratinocyte line, HaCaT cells (AddexBio, San Diego, Calif., cat # T0020001) were cultured in 25 cm^2 vented, Falcon canted tissue culture flasks (VWR, Radnor, Pa., cat #353108) using complete DMEM media (Life Technologies, Grand Island, N.Y., cat #11965-092) supplemented with 10% characterized Hyclone FBS (VWR, Radnor, Pa., cat #1677-014) and 1× Penicillin—Streptomycin (Life Technologies, Grand Island, N.Y., cat #15140122). The cultures were incubated at 37° C. and 5% CO2 until the cells reached around 70-80% confluence. […]
Assay sample preparation: Samples were prepared in a final concentration of 1% DMSO in complete media. […] Two different batches of product 5 were tested at 0.15 mM, the average % Growth Relative to day 0 (d0) was determined and presented in FIG. 20. […]
Quantifying cell migration/wound healing: To explore the effects of various actives on cell migration/wound healing, the size of the freshly generated wound (the gap size) was determined following treatment using an inverted microscope (Olympus 1X71, Olympus Scientific Solutions Americas, Waltham, Mass.) and Cellsens Dimension 1.11 (Olympus Corporation, Waltham, Mass.) software and monitored until the gap closed completely. […] The mean of each arm was determined for each day of the study until the wound heal and no gap existed. […]

The structures appear in SMILES notation.

On to `C[C@@H]1O[C@@H](O[C@H]2[C@H](Oc3cc(O)c4c(c3)O[C@H](c3ccc(O)cc3)CC4=O)O[C@H](CO)[C@@H](O)[C@@H]2O)[C@H](O)[C@H](O)[C@H]1O` [Naringin], for which the “wound healing, % growth relative to d0 (in words)” value is on record as “not significantly different from that of Zinc acetate”.
